One assay has as its system SW620. Description: Cell death IC50 by PI staining/FACS. To be noted: Human colorectal adenocarcinoma/EBV(−), 0.1–15 µM, 6 h (suspension) or 12 h (adherent cells), mean ± SEM, read-out: Peptide IC50 (µM), cell death, SW620. Format: cell-based. How it is done: (§1) Measurement of apoptosis and cell death. Apoptosis was evaluated by TUNEL assay using the In Situ Cell Death Detection Kit™ (Roche). Cells were fixed in 4% paraformaldehyde and labeled with TUNEL reagents. Stained cells were photographed by a fluorescence microscope (11). For cell death analysis, the propidium iodide (PI) staining was performed by addition of 6.25 µg/ml of PI to the cells, and cell death was immediately evaluated by FACS analysis (3).

The test system of another assay is Kasumi-1. Description: Cell death IC50 by PI staining/FACS. Format: cell-based. To be noted: Human acute myeloblastic leukemia/EBV(−), 0.1–15 µM, 6 h (suspension) or 12 h (adherent cells), mean ± SEM, read-out: Peptide IC50 (µM), cell death, Kasumi-1. How it is done: as §1
In another assay the test system is THP1. Nature of the assay: Cell death IC50 by PI staining/FACS. Format: cell-based. To be noted: Human monocytic leukemia/EBV(−), 0.1–15 µM, 6 h (suspension) or 12 h (adherent cells), mean ± SEM, read-out: Peptide IC50 (µM), cell death, THP1. Here is the method: as §1
For the next assay, the system named is Namalwa. Description: Cell death IC50 by PI staining/FACS. Format: cell-based. The note with it: Human Burkitt’s lymphoma/EBV(+), 0.1–15 µM, 6 h (suspension) or 12 h (adherent cells), mean ± SEM, read-out: Peptide IC50 (µM), cell death, Namalwa. Here is the method: as §1
For another assay, the system named is NK92. Description: Cell death IC50 by PI staining/FACS. The note with it: Human natural killer non-Hodgkin’s lymphoma/EBV(−), 0.1–15 µM, 6 h (suspension) or 12 h (adherent cells), mean ± SEM, read-out: Peptide IC50 (µM), cell death, NK92. Format: cell-based. How it is done: as §1
The subject of the next assay is Hela. Nature of the assay: Cell death IC50 by PI staining/FACS. Format: cell-based. To be noted: Human cervix adenocarcinoma/EBV(−), 0.1–15 µM, 6 h (suspension) or 12 h (adherent cells), mean ± SEM, read-out: Peptide IC50 (µM), cell death, Hela. Here is the method: as §1
A further assay has as its system HANK1. Nature of the assay: Cell death IC50 by PI staining/FACS. Format: cell-based. The note with it: Human natural killer/T-cell lymphoma/EBV(+), 0.1–15 µM, 6 h (suspension) or 12 h (adherent cells), mean ± SEM, read-out: Peptide IC50 (µM), cell death, HANK1. How it is done: as §1
The next assay has as its system HMECs. Nature of the assay: Cell death IC50 by PI staining/FACS. Format: cell-based. To be noted: Human mammary epithelial cells/EBV(−), 0.1–15 µM, 6 h (suspension) or 12 h (adherent cells), mean ± SEM, read-out: Peptide IC50 (µM), cell death, HMECs. How it is done:
as §1

For the next assay, the system named is MCF7. Nature of the assay: Cell death IC50 by PI staining/FACS. Format: cell-based. To be noted: Human breast adenocarcinoma/EBV(−), 0.1–15 µM, 6 h (suspension) or 12 h (adherent cells), mean ± SEM, read-out: Peptide IC50 (µM), cell death, MCF7. How it is done:
as §1

Another assay has as its system SNT8. Description: Cell death IC50 by PI staining/FACS. Format: cell-based. To be noted: Human natural killer/T-cell lymphoma/EBV(+), 0.1–15 µM, 6 h (suspension) or 12 h (adherent cells), mean ± SEM, read-out: Peptide IC50 (µM), cell death, SNT8. How it is done: as §1
The next assay concerns the target HKDC1/VDAC1 (Homo sapiens, UniProt P21796). Description: IP/WB association of HKDC1 with VDAC1 in SNK6 cells. To be noted: 0.5 µM peptide, 6 h, vs CTL, n = 5 (Fig. 4c, d). More on the design: endogenous in cells; host or cells: SNK6. Format: cell-based. Here is the method:
Immunoprecipitation (IP) and Western Blotting (WB). Cell lysates were pre-cleared by pre-immune IgG plus Protein A agarose beads for 2 hours, and the supernatants were immunoprecipitated by the indicated antibodies and a 50% slurry of Protein A Agarose beads overnight at 4 °C (9). After washing with buffer containing 50 mM Tris, pH 7.5, 150 mM NaCl, 1% NP-40, and 0.5% deoxycholate with protease inhibitors, proteins were released, separated on 10% SDS-PAGE gels, blotted by primary antibodies, and then simultaneously incubated with the differentially labeled species-specific secondary antibodies, anti-RABBIT IRDye™ 800CW (green) and anti-MOUSE (or goat) ALEXA680 (red). Membranes were scanned and quantitated by the ODYSSEY Infrared Imaging System (LI-COR, NE) (10).

Another assay concerns EBV Zta. Nature of the assay: Protein level in xenograft tumor tissue (western blot). Format: in vivo. To be noted: SNK6 xenograft, Balb/c athymic nude mice; intratumoral 50 µM peptide, 20 µl per tumor, every 2 days from day ~18; tissue day 50; western blot vs CTL; n = 5. The source says:
Biomedical analysis of tumor tissues.

Assay [1] deals with SNK6 cells.
Source text: We investigated the potential role of HKDC1-based peptides in ENKTL cells that were isolated from the MNCs of ENKTL patients or SNK6 cell line. Three different kinds of HKDC1-based targeting peptides, including the last 15 aa at either the N-terminal (HKN15) or C-terminal (HKC15), or the last eight aa at the C-terminal (HKC8) were selected; four different kinds of cell-penetrating sequences were employed to deliver the HKDC1-based peptides, including Antp (a 16 penetrating residue long sequence from the Drosophila antennapedia-homeodomain), penetration-accelerating segment, TAT (HIV-1 TAT sequence), and Tf (the Tf receptor (TfR) internalization sequence) sequences. All of the aa with the D-configuration (marked as D) were synthesized as retro-inverso peptides. […] We then evaluated the toxic effect of two peptides (including Tf-D-HKC15 and Tf-D-HKC8) on different kinds of primary and cancer cell lines (see details in Table 2). […] We also evaluated the peptide delivery efficiency using ^125I-labeled uptake assay for both Tf-D-HKC8 and Tf-D-HKC15 peptides.
as §1

The subject of assay [2] is SNK6 cells. Description: Cell proliferation by thymidine incorporation. Format: cell-based, human. The note with it: 0.5 µM peptide, 6 h, vs CTL, n = 5 (Fig. 5a). How it is done: DNA synthesis by [^3H]-thymidine incorporation. Cell proliferation was evaluated as the rate of DNA synthesis by [^3H]-methylthymidine incorporation (17). […] At the end of the treatment, cells were incubated with serum-free media containing ^3H-methylthymidine (0.5 µCi/well) for 2 hours and then washed twice with PBS. Cellular DNA was precipitated using 10% trichloroacetic acid and solubilized with 0.4M NaOH (0.5 ml/well). Incorporation of ^3H-methylthymidine into the DNA was measured in a scintillation counter and was determined as counts per minute (CPM) (8).

Where [3] appears, read: read-out: IC50 (µM) SNK6, half-maximal cell death activity, SNK6 cells, peptides 0.1–15 µM, 6 h, PI staining, FACS, mean ± SEM, n in cell (Table 1).

Like-named read-outs stand apart in the source and are kept apart here. Some results are limits rather than exact numbers.

HKDC1/VDAC1, sequence (P21796 2-283 limits assumed): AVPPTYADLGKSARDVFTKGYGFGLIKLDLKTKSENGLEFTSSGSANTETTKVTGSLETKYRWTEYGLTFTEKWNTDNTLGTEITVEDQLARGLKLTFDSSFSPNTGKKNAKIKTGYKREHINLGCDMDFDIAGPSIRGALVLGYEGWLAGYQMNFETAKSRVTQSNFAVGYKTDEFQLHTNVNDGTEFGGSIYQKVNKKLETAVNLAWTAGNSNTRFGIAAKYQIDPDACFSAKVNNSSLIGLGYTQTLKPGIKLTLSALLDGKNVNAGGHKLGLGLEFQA

With HAIYPRH-ITAVAKRLQQAQKEN [Tf-D-HKC15], the IC50 in the assay with SW620 worked out at 12.5 ± 0.8 µM; with Kasumi-1, 2.7 ± 0.9 µM; in the assay with THP1, 2.3 ± 0.5 µM; in the assay on Namalwa, 0.9 ± 0.3 µM; in the assay on NK92, 1.5 ± 0.6 µM; with Hela, 9.8 ± 0.6 µM. Besides, the IC50 is 1.4 ± 0.6 µM in the assay on HANK1; over 15 µM in the assay on HMECs; over 15 µM in the assay on MCF7; 1.1 ± 0.4 µM with SNT8; 1.2 ± 0.5 µM in the assay on SNK6 cells [1] (setting [3]); 1.2 ± 0.3 µM with SNK6 cells [1] (read-out: Peptide IC50 (µM), cell death, SNK6, Human natural killer/T-cell lymphoma/EBV(+), 0.1–15 µM, 6 h (suspension) or 12 h (adherent cells), PI/FACS, mean ± SEM (Table 2)). Moreover, the “association of HKDC1 with VDAC1” value on HKDC1/VDAC1 stood at 68%. For the same substance, the “EBV Zta protein levels in tumor” value with EBV Zta came out at 65%. The substance also displayed a thymidine incorporation with SNK6 cells [2] of 71%.

Turning to HAIYPRH-LQQAQKEN [Tf-D-HKC8], the IC50 with SW620 amounted to 10.2 ± 0.7 µM; in the assay on Kasumi-1 it was 1.8 ± 0.6 µM; in the assay with THP1 it was 1.8 ± 0.6 µM; with Namalwa, 0.7 ± 0.4 µM; in the assay on NK92, 0.9 ± 0.4 µM; with Hela, 6.8 ± 0.9 µM. Moreover, the IC50 in the assay with HANK1 was 0.7 ± 0.4 µM; in the assay on HMECs it was over 15 µM; in the assay on MCF7, over 15 µM; with SNT8, 0.6 ± 0.3 µM; with SNK6 cells [1] (setting [3]), 0.3 ± 0.2 µM. Besides, the “association of HKDC1 with VDAC1” value at HKDC1/VDAC1 came out at 24%. Moreover, the “EBV Zta protein levels in tumor” value in the assay on EBV Zta came to 32%. In addition, the thymidine incorporation with SNK6 cells [2] came out at 28%.

As a reminder, the IC50 is the concentration needed to halve the response being measured.

(Values after article PMC7515829, “HKDC1 C-terminal based peptides inhibit extranodal natural killer/T-cell lymphoma by modulation of mitochondrial function and EBV suppression” (Leukemia, 2020).)
